Source: patent US20210070735A1, “RIP1 INHIBITORY COMPOUNDS AND METHODS FOR MAKING AND USING THE SAME” (Rigel Pharmaceuticals, Inc., priority 2019, published 2021)

Key:
human RIP1 = target: T1, human RIP1 (Homo sapiens, UniProt Q13546); assay: U937 cell necroptosis assay (TNFa + zVAD, CellTiter-Glo); assay type: cell-based; conditions: U937 Zvad TNF CTG Recovery, U937 cells, TNFa 2 ng/mL + zVAD-fmk, 18 hours
T1 construct: U937 and L929 cells were obtained from the American Type Culture Collection; host or cells: U937
T1 sequence (Q13546 1-671): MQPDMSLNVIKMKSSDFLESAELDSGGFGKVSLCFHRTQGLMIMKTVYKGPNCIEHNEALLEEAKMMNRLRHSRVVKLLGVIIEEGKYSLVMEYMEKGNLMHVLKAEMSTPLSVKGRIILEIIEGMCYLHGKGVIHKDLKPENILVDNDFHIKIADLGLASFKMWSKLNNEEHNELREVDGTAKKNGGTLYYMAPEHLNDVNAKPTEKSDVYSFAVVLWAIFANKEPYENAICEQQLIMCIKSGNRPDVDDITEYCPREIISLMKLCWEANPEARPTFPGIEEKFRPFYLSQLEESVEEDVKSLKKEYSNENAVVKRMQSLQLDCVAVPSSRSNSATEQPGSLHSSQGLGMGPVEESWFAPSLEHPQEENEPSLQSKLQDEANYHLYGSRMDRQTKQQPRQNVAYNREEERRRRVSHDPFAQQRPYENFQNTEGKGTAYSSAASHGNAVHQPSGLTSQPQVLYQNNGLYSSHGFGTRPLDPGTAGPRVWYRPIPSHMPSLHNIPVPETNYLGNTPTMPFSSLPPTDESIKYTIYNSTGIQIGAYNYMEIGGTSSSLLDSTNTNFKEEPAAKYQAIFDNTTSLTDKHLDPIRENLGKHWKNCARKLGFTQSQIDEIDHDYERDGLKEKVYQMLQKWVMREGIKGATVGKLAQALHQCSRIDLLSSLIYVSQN
Description: (§1) In this example, U937 and L929 cells were exposed to compounds of the present disclosure and a cell necroptosis assay was conducted to evaluate the compounds' activity against human RIP1 and murine RIP1.
(§2) U937 and L929 cells were obtained from the American Type Culture Collection (Manassa, Va., USA). Both cells were maintained in logarithmic growth phase in complete RPMI 1640 media (Sigma, ST Louis, Mo., USA) supplemented with 10% fetal bovine serum (Sigma, ST Louis, Mo., USA) at 37° C. with 5% CO2. For necroptosis assay, L929 cells were plated for 18 h in 100 µL/well medium at 10K cells/well in Costar 96-well black clear-bottom plates (Fisher Scientific, Hampton, N.H., USA); U937 cells were plated on the day of the assay in 50 µL/well medium containing 60 uM zVAD-fmk (Lonza, Basel, Switzerland) at 50K cells/well. Medium from L929 cells were removed from the 96-well plates and replaced with 50 µL/well new medium containing 40 uM zVAD-fmk. Each compound of the present disclosure evaluated in this example was serially diluted in DMSO from 2.5 mM in 4-fold dilutions, and then diluted 1:125 in complete medium. 50 µL/well 2× of the compound was then added to the cells in the plates. The cells were pre-incubated with the compound for 1 hour at 37° C. with 5% CO2 and before addition of 10 µL/well 11×TNFa (Peprotech, Rocky Hill, N.J., USA) to give a final concentration of 2 ng/mL for TNFa. The relative amount of necroptosis cells was determined by luminescent using a Wallac Victor2 Luminometer (PerkinElmer, Waltham, Mass., USA) and a CellTiter-Glo® Luminescent Cell Viability Reagent Assay (Promega, Madison, Wis., USA) added per manufacturer instructions after 18 hours of TNFa stimulation at 37° C. with 5% CO2.Results from this example are summarized in Table 2. This example establishes that embodiments of the compounds described herein have unexpectedly potent activity against human RIP1 and murine RIP1, which allows their assessment in in vivo mouse models of disease.

murine RIP1 = target: T2, murine RIP1 (Mus musculus, UniProt Q60855); assay: L929 cell necroptosis assay (TNFa + zVAD, CellTiter-Glo); assay type: cell-based
T2 construct: U937 and L929 cells were obtained from the American Type Culture Collection; host or cells: L929
T2 sequence (Q60855 1-656): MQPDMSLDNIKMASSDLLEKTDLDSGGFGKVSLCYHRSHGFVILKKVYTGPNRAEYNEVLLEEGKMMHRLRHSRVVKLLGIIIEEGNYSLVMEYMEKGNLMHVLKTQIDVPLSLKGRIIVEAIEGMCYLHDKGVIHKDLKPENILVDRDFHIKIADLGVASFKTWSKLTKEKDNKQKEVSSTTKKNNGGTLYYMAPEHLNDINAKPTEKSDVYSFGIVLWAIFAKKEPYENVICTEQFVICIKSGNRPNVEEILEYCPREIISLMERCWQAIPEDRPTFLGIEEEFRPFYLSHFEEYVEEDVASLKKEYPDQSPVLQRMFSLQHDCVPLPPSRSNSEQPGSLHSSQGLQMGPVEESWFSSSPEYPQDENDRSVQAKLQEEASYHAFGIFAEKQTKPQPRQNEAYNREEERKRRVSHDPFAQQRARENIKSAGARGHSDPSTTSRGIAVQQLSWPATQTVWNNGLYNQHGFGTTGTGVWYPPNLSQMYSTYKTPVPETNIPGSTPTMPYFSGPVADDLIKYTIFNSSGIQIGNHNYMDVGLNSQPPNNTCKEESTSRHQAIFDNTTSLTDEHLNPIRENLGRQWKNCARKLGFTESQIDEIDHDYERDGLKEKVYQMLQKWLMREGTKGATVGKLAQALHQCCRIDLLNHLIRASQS
Description: as §1, §2

RIPK1 = target: T3, RIPK1 (Homo sapiens, UniProt Q13546); assay: RIPK1 ADP-Glo biochemical kinase assay; conditions: 30 min at 30° C.
T3 sequence (Q13546 1-671): T1 sequence (Q13546 1-671)
Description: The final reaction volume was 5.0 μl.
Adding 5 μl of ADP-Glo™ terminated the reaction.

## CN1C(=O)C(NC(=O)c2ncn(Cc3c(Cl)cccc3Cl)n2)CCc2ccc(CN3CCN(c4ccncc4)CC3)cc21 (racemic) [Compound I-3, (±)-1-(2,6-Dichlorobenzyl)-N-(1-methyl-2-oxo-8-((4-(pyridin-4-yl)piperazin-1-yl)methyl)-2,3,4,5-tetrahydro-1H-benzo[b]azepin-3-yl)-1H-1,2,4-triazole-3-carboxamide]
Human RIP1
  IC50: 5.8 nM
Murine RIP1
  IC50: 2530 nM
RIPK1
  IC50: 30.7 nM

## CN1C(=O)C(NC(=O)c2n[nH]c(Cc3ccccc3)n2)CCc2ccc(CN3CCN(c4ccncc4)CC3)cc21 (racemic) [Compound I-4, (±)-5-Benzyl-N-(1-methyl-2-oxo-8-((4-(pyridin-4-yl)piperazin-1-yl)methyl)-2,3,4,5-tetrahydro-1H-benzo[b]azepin-3-yl)-1H-1,2,4-triazole-3-carboxamide]
Human RIP1
  IC50: 53.9 nM
RIPK1
  IC50: 525 nM

## O=C(NC1CCc2ccc(CN3CCN(c4ccncc4)CC3)cc2NC1=O)c1ncn(Cc2c(Cl)cccc2Cl)n1 (racemic) [Compound I-5, (±)-1-(2,6-Dichlorobenzyl)-N-(2-oxo-8-((4-(pyridin-4-yl)piperazin-1-yl)methyl)-2,3,4,5-tetrahydro-1H-benzo[b]azepin-3-yl)-1H-1,2,4-triazole-3-carboxamide]
Human RIP1
  IC50: 16.4 nM
RIPK1
  IC50: 65.6 nM

## O=C(NC1CCc2ccc(CN3CCN(c4ccncc4)CC3)cc2NC1=O)c1n[nH]c(Cc2ccccc2)n1 (racemic) [Compound I-6, (±)-5-Benzyl-N-(2-oxo-8-((4-(pyridin-4-yl)piperazin-1-yl)methyl)-2,3,4,5-tetrahydro-1H-benzo[b]azepin-3-yl)-1H-1,2,4-triazole-3-carboxamide]
Human RIP1
  IC50: 1460 nM
RIPK1
  IC50: 330 nM

## O=C(NC1CCc2ccc(CN3CCN(c4ccncc4)CC3)cc2NC1=O)c1n[nH]c(Cc2ccccc2)n1 (racemic) [Compound I-7, (±)-5-Benzyl-N-(2-oxo-8-((4-(pyridin-4-yl)piperazin-1-yl)methyl)-2,3,4,5-tetrahydro-1H-benzo[b]azepin-3-yl)-1H-1,2,4-triazole-3-carboxamide]
Human RIP1
  IC50: 2650 nM
RIPK1
  IC50: 806 nM

## CN1C(=O)C(NC(=O)c2n[nH]c(Cc3ccccc3)n2)CCc2ccc(CN3CCn4ncnc4C3)cc21 (racemic) [Compound I-8, (±)-5-Benzyl-N-(8-((5,6-dihydro-[1,2,4]triazolo[1,5-a]pyrazin-7(8H)-yl)methyl)-1-methyl-2-oxo-2,3,4,5-tetrahydro-1H-benzo[b]azepin-3-yl)-1H-1,2,4-triazole-3-carboxamide]
Human RIP1
  IC50: 9.3 nM
Murine RIP1
  IC50: 5440 nM
RIPK1
  IC50: 378 nM

## O=C(NC1CCc2ccc(N3CC4(CCOCC4)C3)cc2NC1=O)c1n[nH]c(Cc2ccccc2)n1 (racemic) [Compound I-9, (±)-5-Benzyl-N-(2-oxo-8-(7-oxa-2-azaspiro[3.5]nonan-2-yl)-2,3,4,5-tetrahydro-1H-benzo[b]azepin-3-yl)-1H-1,2,4-triazole-3-carboxamide]
Human RIP1
  IC50: 13.1 nM
Murine RIP1
  IC50: 30800 nM
RIPK1
  IC50: 414 nM

## CN1C(=O)C(NC(=O)c2n[nH]c(Cc3ccccc3)n2)CCc2ccc(N3CCN4CCC3CC4)cc21 (racemic) [Compound I-11, (±)-N-(8-(1,4-Diazabicyclo[3.2.2]nonan-4-yl)-1-methyl-2-oxo-2,3,4,5-tetrahydro-1H-benzo[b]azepin-3-yl)-5-benzyl-1H-1,2,4-triazole-3-carboxamide]
Human RIP1
  IC50: 1080 nM
RIPK1
  IC50: 808 nM

## CN1C(=O)C(NC(=O)c2n[nH]c(Cc3ccccc3)n2)CCc2ccc(N3CC4(CCCCC4)C3)cc21 (racemic) [Compound I-12, (±)-5-Benzyl-N-(1-methyl-2-oxo-8-(2-azaspiro[3.5]nonan-2-yl)-2,3,4,5-tetrahydro-1H-benzo[b]azepin-3-yl)-1H-1,2,4-triazole-3-carboxamide]
Human RIP1
  IC50: 5.2 nM
Murine RIP1
  IC50: 43.2 nM
RIPK1
  IC50: 444 nM

## CN1C(=O)C(NC(=O)c2n[nH]c(Cc3ccccc3)n2)CCc2ccc(N3CCC4(CCOCC4)CC3)cc21 (racemic) [Compound I-13, (±)-5-Benzyl-N-(1-methyl-2-oxo-8-(3-oxa-9-azaspiro[5.5]undecan-9-yl)-2,3,4,5-tetrahydro-1H-benzo[b]azepin-3-yl)-1H-1,2,4-triazole-3-carboxamide]
Human RIP1
  IC50: 2.1 nM
Murine RIP1
  IC50: 94.9 nM
RIPK1
  IC50: 373 nM

## [2H]C([2H])([2H])N1C(=O)C(NC(=O)c2n[nH]c(Cc3ccccc3)n2)CCc2ccc(C#CC(C)(C)O)cc21 (racemic) [Compound I-14, (±)-5-Benzyl-N-(8-(3-hydroxy-3-methylbut-1-yn-1-yl)-1-(methyl-d)-2-oxo-2,3,4,5-tetrahydro-1H-benzo[b]azepin-3-yl)-1H-1,2,4-triazole-3-carboxamide]
Human RIP1
  IC50: 7.3 nM
Murine RIP1
  IC50: 43.3 nM
RIPK1
  IC50: 129 nM

## [2H]C([2H])([2H])N1C(=O)C(NC(=O)c2n[nH]c(Cc3ccccc3)n2)CCc2ccc(N3CC4(CCOCC4)C3)cc21 (racemic) [Compound I-15, (±)-5-Benzyl-N-(1-(methyl-d3)-2-oxo-8-(7-oxa-2-azaspiro[3.5]nonan-2-yl)-2,3,4,5-tetrahydro-1H-benzo[b]azepin-3-yl)-1H-1,2,4-triazole-3-carboxamide]
Human RIP1
  IC50: 7.9 nM
Murine RIP1
  IC50: 257 nM
RIPK1
  IC50: 106 nM

## O=C(NC1CCc2ccc(CN3CCN(c4ccncc4)CC3)cc2NC1=O)c1cc(Oc2ccccc2)ccn1 (racemic) [Compound I-26, (±)-N-(2-Oxo-8-((4-(pyridin-4-yl)piperazin-1-yl)methyl)-2,3,4,5-tetrahydro-1H-benzo[b]azepin-3-yl)-4-phenoxypicolinamide]
Human RIP1
  IC50: 3890 nM
RIPK1
  IC50: 661 nM

## CN1C(=O)C(NC(=O)c2nccc(-c3ccccc3)n2)CCc2ccc(CN3CCN(c4ccncc4)CC3)cc21 (racemic) [Compound I-38, (±)-N-(1-Methyl-2-oxo-8-((4-(pyridin-4-yl)piperazin-1-yl)methyl)-2,3,4,5-tetrahydro-1H-benzo[b]azepin-3-yl)-4-phenylpyrimidine-2-carboxamide]
Human RIP1
  IC50: 6360 nM
RIPK1
  IC50: 4460 nM

## CN1C(=O)C(NC(=O)c2nccc(-c3ccccc3)n2)CCc2ccc(CN3CCn4ncnc4C3)cc21 (racemic) [Compound I-39, (±)-N-(8-((5,6-dihydro-[1,2,4]triazolo[1,5-a]pyrazin-7(8H)-yl)methyl)-1-methyl-2-oxo-2,3,4,5-tetrahydro-1H-benzo[b]azepin-3-yl)-4-phenylpyrimidine-2-carboxamide]
Human RIP1
  IC50: 216 nM
